Laboratory results reported in patent US20230184744A1, “INTERTUMORAL HOMOGENEITY DETERMINED BY MiCK ASSAY” (Pierian Biosciences, LLC, priority 2014, published 2023).
Like-named read-outs stand apart in the source and are kept apart here.

Legend:
[1] = test system: Probable mesothelioma (pleural effusion); experiment: MiCK assay, drug-induced apoptosis, Table 3 tumor A2; type: cell-based, human
Method: (§1) Data were obtained optically using Mie light-scattering.
When the optimal cell concentration is reached, put the cells in the plate and incubate overnight in the incubating chamber of the incubator (37° C.).

[2] = test system: NSCLC, bilateral well-differentiated adenocarcinoma (site 1A); experiment: MiCK assay, drug-induced apoptosis, Table 3 tumor B1; type: cell-based, human
Excerpt: as §1
(§2) Do a test well. […] Look at the well under the inverted microscope. […] Repeat until optimal cell concentration is found. Plate the cells into the wells.

[3] = test system: NSCLC, bilateral well-differentiated adenocarcinoma (site 1B); experiment: MiCK assay, drug-induced apoptosis, Table 3 tumor B2; type: cell-based, human
Excerpt: as §1, §2

[4] = test system: NSCLC, multi-focal, recurrent adenocarcinoma (site A); experiment: MiCK assay, drug-induced apoptosis, Table 3 tumor C1; type: cell-based, human
Excerpt: as §1, §2

[5] = test system: NSCLC, multi-focal, recurrent adenocarcinoma (site B); experiment: MiCK assay, drug-induced apoptosis, Table 3 tumor C2; type: cell-based, human
Excerpt: as §1, §2

[6] = test system: NSCLC, multi-focal, recurrent adenocarcinoma (right lung); experiment: MiCK assay, drug-induced apoptosis, Table 3 tumor D1; type: cell-based, human
Excerpt: as §1, §2

[7] = test system: NSCLC, multi-focal, recurrent adenocarcinoma (lymph node); experiment: MiCK assay, drug-induced apoptosis, Table 3 tumor D2; type: cell-based, human
Excerpt: as §1, §2

[8] = test system: NSCLC, multi-focal adenocarcinoma (site A); experiment: MiCK assay, drug-induced apoptosis, Table 3 tumor E1; type: cell-based, human
Excerpt: as §1, §2

[9] = test system: NSCLC, multi-focal adenocarcinoma (site B); experiment: MiCK assay, drug-induced apoptosis, Table 3 tumor E2; type: cell-based, human
Excerpt: as §1, §2

[10] = test system: Lung adenocarcinoma (pleural effusion); experiment: MiCK assay, drug-induced apoptosis, Table 4 tumor B1; type: cell-based, human
Excerpt: as §1
(§3) Patients: Three patients were included in this study. […] Patient A was diagnosed with pancreatic islet cell cancer; sample 1 was collected from lymph node and sample 2 was collected from the primary tumor. Patient B was diagnosed with lung cancer NSCLC adenocarcinoma; sample 1 was collected from pleural effusion and sample 2 was collected from solid tumor. […] Ages of the patients ranged from 51-79 years old with an average age of 65 years. One patient was […] and two were female.

[11] = test system: Pancreatic islet cell cancer (lymph node); experiment: MiCK assay, drug-induced apoptosis, Table 4 tumor A1
Method: (§4) After overnight incubation, chemotherapy drugs were added to the wells of the 96-well plate in 5 μL aliquots or to the wells of a 384-well plate in 2.5 μL aliquots using an automated pipettor. The number of drugs or drug combinations and the number of concentrations tested depended on the number of viable malignant cells that were isolated from the tumor specimen. The drug concentrations, determined by molarity, were those indicated by the manufacturer as the desired blood level concentration plus or minus one serial dilution if enough cells were available.
(§5) Following drug addition, the plate was incubated for 30 min. at 37° C. in a 5% carbon dioxide humidified atmosphere incubator. Each well was then overlayed with sterile mineral oil, and the plate was placed into the incubator chamber of a microplate spectrophotometric reader. The optical density at 600 nanometers was read and recorded every 5 minutes over a period of 48 hours.
(§6) Patients: Three patients were included in this study. Two tumor samples from different tumor sites were collected from each patient. Both samples from each patient were collected on the same day.

[12] = test system: Pancreatic islet cell cancer (primary tumor); experiment: MiCK assay, drug-induced apoptosis, Table 4 tumor A2; conditions: 48 hours with drug
Method: as §4
(§7) Following drug addition, the plate was incubated for 30 min. at 37° C. in a 5% carbon dioxide humidified atmosphere incubator. Each well was then overlayed with sterile mineral oil, and the plate was placed into the incubator chamber of a microplate spectrophotometric reader. The optical density at 600 nanometers was read and recorded every 5 minutes over a period of 48 hours. Optical density increases, which correlates with apoptosis, were converted to kinetic units (KU) of apoptosis by a proprietary software ProApo with a formula described in the Kravtsov reference incorporated by reference (i.e. Kravtsov V. et al. “Use of the Microculture Kinetic Assay of apoptosis to determine chemosensitivities of leukemias.” Blood 1998; 92:968-980).
(§8) Purified tumor cells were cultured for 48 hours with individual drugs, and drug-induced apoptosis was measured using the MiCK assay as described in Example 1. Data were obtained optically using Mie light-scattering.

[13] = test system: Lung small cell carcinoma (site A); experiment: MiCK assay, drug-induced apoptosis, Table 4 tumor C1
Method: as §4, §5, §6

[14] = test system: Lung adenocarcinoma (site B); experiment: MiCK assay, drug-induced apoptosis, Table 4 tumor C2
Method: as §4, §7, §8

[15] = test system: Lung adenocarcinoma (solid tumor); experiment: MiCK assay, drug-induced apoptosis, Table 4 tumor B2; type: cell-based, human
Excerpt: as §1, §3

[16] = Table 3 tumor A2: Probable mesothelioma (pleural effusion), 48 hours with drug
[17] = Table 3 tumor B1: NSCLC, bilateral well-differentiated adenocarcinoma (site 1A), 48 hours with drug
[18] = Table 3 tumor B2: NSCLC, bilateral well-differentiated adenocarcinoma (site 1B), 48 hours with drug
[19] = Table 3 tumor C1: NSCLC, multi-focal, recurrent adenocarcinoma (site A), 48 hours with drug
[20] = Table 3 tumor C2: NSCLC, multi-focal, recurrent adenocarcinoma (site B), 48 hours with drug
[21] = Table 3 tumor D1: NSCLC, multi-focal, recurrent adenocarcinoma (right lung), 48 hours with drug
[22] = Table 3 tumor D2: NSCLC, multi-focal, recurrent adenocarcinoma (lymph node), 48 hours with drug
[23] = Table 3 tumor E1: NSCLC, multi-focal adenocarcinoma (site A), 48 hours with drug
[24] = Table 3 tumor E2: NSCLC, multi-focal adenocarcinoma (site B), 48 hours with drug
[25] = Table 4 tumor B1: Lung adenocarcinoma (pleural effusion), 48 hours with drug
[26] = Table 4 tumor A1: Pancreatic islet cell cancer (lymph node), 48 hours with drug
[27] = Table 4 tumor C1: Lung small cell carcinoma (site A), 48 hours with drug
[28] = Table 4 tumor C2: Lung adenocarcinoma (site B), 48 hours with drug
[29] = Table 4 tumor B2: Lung adenocarcinoma (solid tumor), 48 hours with drug

Structure (SMILES)	kinetic units (KU) of apoptosis [1, 16] [KU]	kinetic units (KU) of apoptosis [2, 17] [KU]	kinetic units (KU) of apoptosis [3, 18] [KU]	kinetic units (KU) of apoptosis [4, 19] [KU]	kinetic units (KU) of apoptosis [5, 20] [KU]	kinetic units (KU) of apoptosis [6, 21] [KU]	kinetic units (KU) of apoptosis [7, 22] [KU]	kinetic units (KU) of apoptosis [8, 23] [KU]	kinetic units (KU) of apoptosis [9, 24] [KU]	kinetic units (KU) of apoptosis [10, 25] [KU]	kinetic units (KU) of apoptosis [11, 26] [KU]	kinetic units (KU) of apoptosis [13, 27] [KU]	kinetic units (KU) of apoptosis [14, 28] [KU]	kinetic units (KU) of apoptosis [15, 29] [KU]	further results
CCc1c2c(nc3ccc(OC(=O)N4CCC(N5CCCCC5)CC4)cc13)-c1cc3c(c(=O)n1C2)COC(=O)[C@]3(O)CC [Irinotecan]	1.30	1.60	1.50	0.40	0.30	0.40	0.90	0.60	0.10	0.60	1.50	1.40	2.10		kinetic units (KU) of apoptosis [12]: 1.16 KU
CCC1=C[C@@H]2CN(C1)Cc1c([nH]c3ccccc13)[C@@](C(=O)OC)(c1cc3c(cc1OC)N(C)[C@H]1[C@@](O)(C(=O)OC)[C@H](OC(C)=O)[C@]4(CC)C=CCN5CC[C@]31[C@@H]54)C2 [Vinorelbine]	2.10	1.20	1.70	0.20	0.00	0.40	1.00	0.40	0.00	3.90	1.18	3.50	2.50	2.70	
N.N.O=C([O-])C1(C(=O)[O-])CCC1.[Pt+2] [Carboplatin]	1.50	1.90	2.20	0.40	1.20	1.00	0.80	0.30	0.30	1.20	1.08	5.30	2.60	2.40	kinetic units (KU) of apoptosis [12]: 1.48 KU
O=P1(N(CCCl)CCCl)NCCCO1 (centres unmarked) [4HC (Cytoxan), Cytoxan]															kinetic units (KU) of apoptosis [1]: 3.10 KU; kinetic units (KU) of apoptosis [2]: 1.10 KU; kinetic units (KU) of apoptosis [3]: 1.20 KU; kinetic units (KU) of apoptosis [4]: 0.60 KU; kinetic units (KU) of apoptosis [5]: 0.00 KU; kinetic units (KU) of apoptosis [6]: 1.20 KU; kinetic units (KU) of apoptosis [7]: 1.20 KU; kinetic units (KU) of apoptosis [8]: 0.50 KU; kinetic units (KU) of apoptosis [9]: 0.30 KU; kinetic units (KU) of apoptosis [10]: 1.20 KU; kinetic units (KU) of apoptosis [15]: 2.40 KU; kinetic units (KU) of apoptosis [11]: 3.00 KU; kinetic units (KU) of apoptosis [13]: 1.80 KU; kinetic units (KU) of apoptosis [14]: 2.40 KU
CC[C@@]1(O)C(=O)OCc2c1cc1n(c2=O)Cc2cc3c(CN(C)C)c(O)ccc3nc2-1 [Topotecan]	3.60	1.70	0.80	0.50	0.00	0.40	1.00	0.70	0.30	1.30		9.30	4.10		
CN(Cc1cnc2nc(N)nc(N)c2n1)c1ccc(C(=O)N[C@@H](CCC(=O)O)C(=O)O)cc1 [Methotrexate]	0.50	1.00								1.40	0.66	1.30	0.60	1.30	
Nc1ccn([C@@H]2O[C@H](CO)[C@@H](O)C2(F)F)c(=O)n1 [Gemcitabine]	0.70	1.20	1.10	0.00	0.70	0.10	0.90	0.30	0.50	1.10	1.08	2.20	1.30	3.20	
COc1cccc2c1C(=O)c1c(O)c3c(c(O)c1C2=O)C[C@@](O)(C(=O)CO)C[C@@H]3O[C@H]1C[C@H](N)[C@@H](O)[C@H](C)O1 [Epirubicin]	3.80	0.90	1.20			1.40				2.70	1.61	8.70	3.20	3.50	
CC[C@]1(O)C[C@H]2CN(CCc3c([nH]c4ccccc34)[C@@](C(=O)OC)(c3cc4c(cc3OC)N(C=O)[C@H]3[C@@](O)(C(=O)OC)[C@H](OC(C)=O)[C@]5(CC)C=CCN6CC[C@]43[C@@H]65)C2)C1 [Vincristine]	2.80	1.30	1.50	0.00	0.40	0.40	0.90	0.10	0.10	0.90	0.82	1.00	1.60		
O=C1[O][Pt]2([NH][C@@H]3CCCC[C@H]3[NH]2)[O]C1=O [Oxaliplatin]										3.00	1.08	4.40	2.50	3.10	
COc1cc([C@@H]2c3cc4c(cc3[C@@H](O[C@@H]3O[C@@H]5CO[C@@H](C)O[C@H]5[C@H](O)[C@H]3O)[C@H]3COC(=O)[C@H]23)OCO4)cc(OC)c1O [Etoposide]	1.20	1.10	1.20	0.80		1.60	0.90	0.40		2.30	1.08	4.60			kinetic units (KU) of apoptosis [12]: 0.00 KU
